Patent US9546152B2 (MERCK SHARP & DOHME CORP., priority 2012, dated 2017)

Columns and labels:
human orexin-2 receptor [1] = target: T1, human orexin-2 receptor (Homo sapiens (Human), UniProt O43614); assay: FLIPR Ca2+ Flux Assay, orexin-2 receptor; type: cell-based; details: CHO cells expressing the human orexin-2 receptor; agonist 70 pM Ala-6,12 human orexin-A; read-out: hOX2R FLIPR IC50
Description: (§1) In a typical experiment the OX1 and OX2 receptor antagonistic activity of the compounds of the present invention was determined in accordance with the following experimental method. For intracellular calcium measurements, Chinese hamster ovary (CHO) cells expressing the rat orexin-1 receptor or the human orexin-2 receptor, are grown in Iscove's modified DMEM containing 2 mM L-glutamine, […], 1% hypoxanthine-thymidine supplement, 100 U/ml penicillin, 100 μg/ml streptomycin and 10% heat-inactivated fetal calf serum (FCS). The cells are seeded at 20,000 cells/well into Becton-Dickinson black 384-well clear bottom sterile plates coated with poly-D-lysine. All reagents were from GIBCO-Invitrogen Corp. The seeded plates are incubated overnight at 37° C. and 5% CO2. Ala-6,12 human orexin-A as the agonist is prepared as a 1 mM stock solution in 1% bovine serum albumin (BSA) and diluted in assay buffer (HBSS containing 20 mM HEPES, 0.1% BSA and 2.5 mM probenecid, pH7.4) for use in the assay at a final concentration of 70 pM. Test compounds are prepared as 10 mM stock solution in DMSO, then diluted in 384-well plates, first in DMSO, then assay buffer. On the day of the assay, cells are washed 3 times with 100 μl assay buffer and then incubated for 60 min (37° C., 5% CO2) in 60 μl assay buffer containing 1 μM Fluo-4AM ester, 0.02% pluronic acid, and 1% BSA. The dye loading solution is then aspirated and cells are washed 3 times with 100 μl assay buffer. 30 μl of that same buffer is left in each well. Within the Fluorescent Imaging Plate Reader (FLIPR, Molecular Devices), test compounds are added to the plate in a volume of 25 μl, incubated for 5 min and finally 25 μl of agonist is added. Fluorescence is measured for each well at 1 second intervals for 5 minutes and the height of each fluorescence peak is compared to the height of the fluorescence peak induced by 70 pM Ala-6,12 orexin-A with buffer in place of antagonist. […] Alternatively, compound potency can be assessed by a radioligand binding assay (described in Bergman et. al. Bioorg. Med. Chem. Lett. 2008, 18, 1425-1430) in which the inhibition constant (Ki) is determined in membranes prepared from CHO cells expressing either the OX1 or OX2 receptor. The intrinsic orexin receptor antagonist activity of a compound which may be used in the present invention may be determined by these assays.

rat orexin-1 receptor = rat orexin-1 receptor (Rattus norvegicus (Rat), UniProt P56718); assay: FLIPR Ca2+ Flux Assay, orexin-1 receptor; type: cell-based; details: CHO cells expressing the rat orexin-1 receptor; agonist 70 pM Ala-6,12 human orexin-A; read-out: hOX1R FLIPR IC50
Sequence of rat orexin-1 receptor (P56718 whole entry): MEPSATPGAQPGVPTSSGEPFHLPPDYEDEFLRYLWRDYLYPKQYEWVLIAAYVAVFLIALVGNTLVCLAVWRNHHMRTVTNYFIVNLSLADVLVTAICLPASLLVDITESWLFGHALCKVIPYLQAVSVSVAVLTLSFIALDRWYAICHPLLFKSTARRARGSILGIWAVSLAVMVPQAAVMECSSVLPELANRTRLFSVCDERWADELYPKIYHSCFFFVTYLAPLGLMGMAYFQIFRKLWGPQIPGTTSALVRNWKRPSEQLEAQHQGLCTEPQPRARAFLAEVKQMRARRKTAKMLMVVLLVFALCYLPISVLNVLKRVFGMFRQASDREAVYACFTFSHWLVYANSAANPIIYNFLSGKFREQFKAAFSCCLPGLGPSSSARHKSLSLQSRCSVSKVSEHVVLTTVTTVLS
Description: as §1

human orexin-2 receptor [2] = target: T1, human orexin-2 receptor; assay: radioligand binding assay, orexin-2 receptor; details: membranes prepared from CHO cells expressing the OX2 receptor; read-out: hOX2R BIND hKi
Description: as §1

T1 sequence (O43614 whole entry): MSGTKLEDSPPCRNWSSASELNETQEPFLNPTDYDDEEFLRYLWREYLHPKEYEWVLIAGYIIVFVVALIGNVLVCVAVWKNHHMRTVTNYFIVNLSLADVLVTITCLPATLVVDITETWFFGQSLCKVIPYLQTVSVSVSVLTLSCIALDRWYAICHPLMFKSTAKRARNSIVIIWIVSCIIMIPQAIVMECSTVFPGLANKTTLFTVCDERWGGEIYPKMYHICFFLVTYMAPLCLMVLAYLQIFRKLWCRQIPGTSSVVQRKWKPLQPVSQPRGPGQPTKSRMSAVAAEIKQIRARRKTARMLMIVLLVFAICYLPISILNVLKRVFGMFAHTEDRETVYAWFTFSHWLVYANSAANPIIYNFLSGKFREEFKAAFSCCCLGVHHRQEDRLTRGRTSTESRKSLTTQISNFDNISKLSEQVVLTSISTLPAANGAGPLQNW

| SMILES | IC50 (human orexin-2 receptor [1]) | IC50 (rat orexin-1 receptor) | Ki (human orexin-2 receptor [2]) |
| --- | --- | --- | --- |
| Cc1c(C#N)ccnc1O[C@@H]1CC[C@@H](C)N(C(=O)c2ccc(OCF)nc2-n2nccn2)C1 [Example 88, 2-{[(3R,6R)-1-{[6-(Fluoromethoxy)-2-(2H-1,2,3-triazol-2-yl)pyridin-3-yl]carbonyl}-6-methylpiperidin-3-yl]oxy}-3-methylpyridine-4-carbonitrile] | 58 nM | > 10000 nM | 9.2 nM |
| Cc1c(C#N)ccnc1O[C@@H]1CC[C@@H](C)N(C(=O)c2cn(C)nc2-c2ccccc2)C1 [Example 45, 3-methyl-2-({(3R,6R)-6-methyl-1-[(1-methyl-3-phenyl-1H-pyrazol-4-yl)carbonyl]piperidin-3-yl}oxy)pyridine-4-carbonitrile] | 91 nM | 4960 nM | 12.7 nM |
| Cc1cccc(C(=O)N2C[C@H](Oc3nccc(C#N)c3C)CC[C@H]2C)c1-n1nccn1 [Example 13, 3-methyl-2-{[(3R,6R)-6-methyl-1-{[3-methyl-2-(2H-1,2,3-triazol-2-yl)phenyl]carbonyl}piperidin-3-yl]oxy}pyridine-4-carbonitrile] | 9 nM | 215 nM | 0.2 nM |
| C=Cc1ccc(C(=O)N2C[C@H](Oc3nccc(C#N)c3C)CC[C@H]2C)c(-n2nccn2)n1 [Example 90, 2-{[(3R,6R)-1-{[6-ethenyl-2-(2H-1,2,3-triazol-2-yl)pyridin-3-yl]carbonyl}-6-methylpiperidin-3-yl]oxy}-3-methylpyridine-4-carbonitrile] | 88 nM | > 10000 nM | 12.9 nM |
| COc1c(C#N)ccnc1O[C@@H]1CC[C@@H](C)N(C(=O)c2cccc(F)c2-n2nccn2)C1 [Example 97, 2-{[(3R,6R)-1-{[3-fluoro-2-(2H-1,2,3-triazol-2-yl)phenyl]carbonyl}-6-methylpiperidin-3-yl]oxy}-3-methoxypyridine-4-carbonitrile] | 19 nM | 1100 nM | 0.3 nM |
| COc1ccc(C(=O)N2C[C@H](Oc3nccc(C#N)c3C)CC[C@H]2C)c(-c2ccnn2C)n1 [Example 79, 2-{[(3R,6R)-1-{[6-methoxy-2-(1-methyl-1H-pyrazol-5-yl)pyridin-3-yl]carbonyl}-6-methylpiperidin-3-yl]oxy}-3-methylpyridine-4-carbonitrile] | 85.6 nM | 10000 nM | 9.9 nM |
| Cc1c(C#N)ccnc1O[C@@H]1CC[C@@H](C)N(C(=O)c2cc(F)ncc2-c2cncs2)C1 [Example 25, 2-{[(3R,6R)-1-{[2-fluoro-5-(1,3-thiazol-5-yl)pyridin-4-yl]carbonyl}-6-methylpiperidin-3-yl]oxy}-3-methylpyridine-4-carbonitrile] | 43 nM | > 10000 nM | 6.1 nM |
| Cc1c(C#N)ccnc1O[C@@H]1CC[C@@H](C)N(C(=O)c2ccccc2-c2cnn(C)c2)C1 [Example 36, 3-methyl-2-{[(3R,6R)-6-methyl-1-{[2-(1-methyl-1H-pyrazol-4-yl)phenyl]carbonyl}piperidin-3-yl]oxy}pyridine-4-carbonitrile] | 20 nM | 2380 nM | 1.5 nM |
| COc1c(C#N)ccnc1O[C@@H]1CC[C@@H](C)N(C(=O)c2cc(F)ccc2-c2ncccn2)C1 [Example 111, 2-({(3R,6R)-1-[(5-fluoro-2-pyrimidin-2-ylphenyl)carbonyl]-6-methylpiperidin-3-yl}oxy)-3-methoxypyridine-4-carbonitrile] | 18 nM | 945 nM | 0.3 nM |
| COc1c(C#N)ccnc1O[C@@H]1CC[C@@H](C)N(C(=O)c2cc(C)ccc2-n2nccn2)C1 [Example 103, 3-methoxy-2-{[(3R,6R)-6-methyl-1-{[5-methyl-2-(2H-1,2,3-triazol-2-yl)phenyl]carbonyl}piperidin-3-yl]oxy}pyridine-4-carbonitrile] | 24 nM | 1010 nM | 0.4 nM |
| Cc1ccc(-n2nccn2)c(C(=O)N2C[C@H](Oc3nccc(C#N)c3C)CC[C@H]2C)c1 [Example 6, 3-methyl-2-{[(3R,6R)-6-methyl-1-{[5-methyl-2-(2H-1,2,3-triazol-2-yl)phenyl]carbonyl}piperidin-3-yl]oxy}pyridine-4-carbonitrile] | 7 nM | 292 nM | 0.6 nM |
| COc1c(C#N)ccnc1O[C@@H]1CC[C@@H](C)N(C(=O)c2ccccc2-n2nccn2)C1 [Example 96, 3-Methoxy-2-{[(3R,6R)-6-methyl-1-{[2-(2H-1,2,3-triazol-2-yl)phenyl]carbonyl}piperidin-3-yl]oxy}pyridine-4-carbonitrile] | 9 nM | 1260 nM | 0.3 nM |
| COc1ccc(C(=O)N2C[C@H](Oc3nccc(C#N)c3C)CC[C@H]2C)c(-n2nccn2)n1 [Example 2, 2-{[(3R,6R)-1-{[6-Methoxy-2-(2H-1,2,3-triazol-2-yl)pyridin-3-yl]carbonyl}-6-methylpiperidin-3-yl]oxy}-3-methylpyridine-4-carbonitrile] | 21 nM | 5930 nM | 3 nM |
| Cc1c(C#N)ccnc1O[C@@H]1CC[C@@H](C)N(C(=O)c2ccccc2C2CC2)C1 [Example 16, 2-({(3R,6R)-1-[(2-cyclopropylphenyl)carbonyl]-6-methylpiperidin-3-yl}oxy)-3-methylpyridine-4-carbonitrile] | 9 nM | 1740 nM | 0.7 nM |
| COc1ccc(C(=O)N2C[C@H](Oc3nccc(C#N)c3C)CC[C@H]2C)c(SC)n1 [Example 84, 2-{[(3R,6R)-1-{[6-Methoxy-2-(methylsulfanyl)pyridin-3-yl]carbonyl}-6-methylpiperidin-3-yl]oxy}-3-methylpyridine-4-carbonitrile] | 22 nM | > 10000 nM | 2 nM |
| CCOc1ncccc1C(=O)N1C[C@H](Oc2nccc(C#N)c2C)CC[C@H]1C [Example 68] | 36 nM | > 10000 nM | 5.9 nM |
| Cc1c(C#N)ccnc1O[C@@H]1CC[C@@H](C)N(C(=O)c2cn(C)nc2-c2nccs2)C1 [Example 46, 3-methyl-2-{[(3R,6R)-6-methyl-1-{[1-methyl-3-(1,3-thiazol-2-yl)-1H-pyrazol-4-yl]carbonyl}piperidin-3-yl]oxy}pyridine-4-carbonitrile] | 111 nM | > 10000 nM | 14.2 nM |
| COc1c(C#N)ccnc1O[C@@H]1CC[C@@H](C)N(C(=O)c2c(F)cccc2-n2nccn2)C1 [Example 100, 2-{[(3R,6R)-1-{[2-fluoro-6-(2H-1,2,3-triazol-2-yl)phenyl]carbonyl}-6-methylpiperidin-3-yl]oxy}-3-methoxypyridine-4-carbonitrile] | 25 nM | 1440 nM | 0.3 nM |
| Cc1c(C#N)ccnc1O[C@@H]1CC[C@@H](C)N(C(=O)c2sccc2-c2ncccn2)C1 [Example 75, 3-methyl-2-({(3R,6R)-6-methyl-1-[(3-pyrimidin-2-ylthiophen-2-yl)carbonyl]piperidin-3-yl}oxy)pyridine-4-carbonitrile] | 15 nM | 1400 nM | 0.8 nM |
| COc1c(C#N)ccnc1O[C@@H]1CC[C@@H](C)N(C(=O)c2cc(F)ccc2-n2nccn2)C1 [Example 99, 2-{[(3R,6R)-1-{[5-fluoro-2-(2H-1,2,3-triazol-2-yl)phenyl]carbonyl}-6-methylpiperidin-3-yl]oxy}-3-methoxypyridine-4-carbonitrile] | 15 nM | 2430 nM | 0.4 nM |
| Cc1c(C#N)ccnc1O[C@@H]1CC[C@@H](C)N(C(=O)c2cc(Cl)ccc2-n2nccn2)C1 [Example 3, 2-{[(3R,6R)-1-{[5-chloro-2-(2H-1,2,3-triazol-2-yl)phenyl]carbonyl}-6-methylpiperidin-3-yl]oxy}-3-methylpyridine-4-carbonitrile] | 128 nM | 4730 nM | 11.7 nM |
| Cc1nnn(-c2ccccc2C(=O)N2C[C@H](Oc3nccc(C#N)c3C)CC[C@H]2C)n1 [Example 40, 3-methyl-2-{[(3R,6R)-6-methyl-1-{[2-(5-methyl-2H-tetrazol-2-yl)phenyl]carbonyl}piperidin-3-yl]oxy}pyridine-4-carbonitrile] | 11 nM | 707 nM | 0.6 nM |
| Cc1c(C#N)ccnc1O[C@@H]1CC[C@@H](C)N(C(=O)c2cc(F)ccc2-c2ccccn2)C1 [Example 56] | 30 nM | 2120 nM | 1.4 nM |
